What follows are compounds tested on VM46 cells (assay: Cell colony formation assay). Conditions: drug concentration producing 50% inhibition of colony formation, incubated with drugs for 72 hours at 37° C., colonies counted after 8 days.
Type: cell-based
Protocol: This example provides directions for growing cells and testing compounds of the invention for their effect on the growth of the cells. All cells are purchased from DCTDC Tumor Repository, NCI, NIH.
Cell Colony Formation Assay
Five hundred cells (VM46) were plated in 60 mm Petri dishes containing 2.7 ml of medium (modified McCoy's 5a medium containing 10% bovine calf serum and 100 units/ml penicillin and […] streptomycin). The cells were incubated in a CO2 incubator at 37° C. for 5 hours for attachment to the bottom of Petri dishes. Drugs were made fresh in medium at ten times the final concentration, and then 0.3 ml of this stock solution was added to the 2.7 ml of medium in the dish. The cells were then incubated with drugs for 72 hours at 37° C. At the end of the incubation the drug-containing media were decanted, the dishes were rinsed with 4 ml of Hank's Balance Salt Solution (HBSS), 5 ml of fresh medium is added, and the dishes are returned to the incubator for colony formation. The cell colonies were counted using colony counter after incubation for 8 days for VM46 cells.
Values of ID50 (the drug concentration producing 50% inhibition of colony formation) may be determined for each tested compound.

Row | Structure (SMILES) | Values of ID 50 [nM]
1 | CC[C@@]1(O)CC(=O)OCc2c1cc1n(c2=O)Cc2cc3ccccc3nc2-1 (racemic) [homo-campothecin, homo-camptothecin] | 4
2 | CCC1(OC(=O)COc2cccc(Cl)c2Cl)CC(=O)OCc2c1cc1n(c2=O)Cc2cc3ccccc3nc2-1 (centres unmarked) [Example 1158, Homocamptothecin-20-O Ester of 2,3-Dichlorophenoxy Acetic Acid] | 1.5
3 | CCC1(OC(=O)COc2ccc(F)cc2)CC(=O)OCc2c1cc1n(c2=O)Cc2cc3ccccc3nc2-1 (centres unmarked) [Example 1160, Homo-camptothecin-20-O-ester of 4-Fluorophenoxyacetic Acid] | 1.5
4 | CCC1(OC(=O)COc2ccc(OC(F)(F)F)cc2)CC(=O)OCc2c1cc1n(c2=O)Cc2cc3ccccc3nc2-1 (centres unmarked) [Example 1164, Homo-camptothecin-20-O-ester of 4-Trifluoromethoxyphenoxyacetic Acid] | 3.5
5 | CCC1(OC(=O)COc2ccccc2Cl)CC(=O)OCc2c1cc1n(c2=O)Cc2cc3ccccc3nc2-1 (centres unmarked) [Example 021229, Homocamptothecin-20-O Ester of 2-Chlorophenoxy Acetic Acid] | 2

— patent publication US20040034050A1, “Homo-camptothecin derivatives” (priority 2002, published 2004)
